Measurements as given in patent publication US20260285850A1, “SUBSTITUTED OXAZOLIDINONES AND IMIDAZOLINONES AS HERBICIDES” (FMC CORPORATION, priority 2023, published 2026).

Tests used:
Type in all cases: in vivo
[1] = tested on: galium (catchweed bedstraw, Galium aparine); assay: Test A postemergence application, visual injury rating 0-100
Outline: (§1)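 Compound in a non-phytotoxic, surfactant-containing solvent is applied either as a directed soil spray before seedlings emerge or onto emerged plants 2-10 cm tall; pots hold a loam-sand blend. Plants grow 10 days under greenhouse conditions and are rated by eye against untreated controls (0 no effect, 100 complete control).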

[2] = tested on: blackgrass (Alopecurus myosuroides); assay: as above
Outline: as §1

[3] = tested on: horseweed (Erigeron canadensis); assay: as above
Outline: as §1

[4] = tested on: green foxtail (Setaria viridis); assay: as above
Outline: as §1

[5] = tested on: kochia (Bassia scoparia); assay: as above
Outline: as §1

[6] = tested on: barnyardgrass (Echinochloa crus-galli); assay: as above
Outline: as §1

[7] = tested on: ducksalad (Heteranthera limosa); assay: Test B flooded paddy test, visual plant response rating 0-100; conditions: 250 g ai/ha, Flood, applied to paddy water, evaluated after 13 days
Outline: (§2)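 Compounds applied to standing paddy water (3 cm above soil, maintained for the test duration) on 2-leaf-stage plants; visual rating vs controls at 13 days, greenhouse.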

[8] = tested on: rice (Oryza sativa); assay: as above; conditions: 250 g ai/ha, Flood, applied to paddy water, evaluated after 13 days
Outline: as §2

[9] = tested on: sedge, umbrella (small-flower umbrella sedge, Cyperus difformis); assay: as above; conditions: 250 g ai/ha, Flood, applied to paddy water, evaluated after 13 days
Outline: as §2

[10] = tested on: barnyardgrass (Echinochloa crusgalli); assay: as above; conditions: 250 g ai/ha, Flood, applied to paddy water, evaluated after 13 days
Outline: as §2

[11] = tested on: ryegrass, Italian (italian ryegrass, Lolium multiflorum); assay: Test A preemergence soil spray, visual injury rating 0-100; conditions: 10 days
Outline: as §1

[12] = tested on: blackgrass (Alopecurus myosuroides); assay: as above; conditions: 10 days
Outline: as §1

[13] = tested on: ragweed (common ragweed, Ambrosia artemisiifolia); assay: as above; conditions: 10 days
Outline: as §1

[14] = tested on: palmer (palmer amaranth, palmer pigweed, Amaranthus palmeri); assay: as above; conditions: 1000 g ai/ha, 10 days, 0 = no effect, 100 = complete control
Outline: as §1

[15] = tested on: green foxtail (Setaria viridis); assay: as above; conditions: 10 days
Outline: as §1

[16] = tested on: kochia (Bassia scoparia); assay: as above; conditions: 10 days
Outline: as §1

[17] = tested on: barnyardgrass (Echinochloa crus-galli); assay: as above; conditions: 10 days
Outline: as §1

[18] = tested on: ryegrass, Italian (italian ryegrass, Lolium multiflorum); assay: Test A postemergence application, visual injury rating 0-100
Outline: as §1

[19] = tested on: wheat (Triticum aestivum); assay: as above
Outline: as §1

[20] = tested on: oat, wild (wild oat, Avena fatua); assay: as above
Outline: as §1

[21] = tested on: corn (Zea mays); assay: as above
Outline: as §1

[22] = tested on: ragweed (common ragweed, Ambrosia artemisiifolia); assay: as above
Outline: as §1

[23] = tested on: palmer (palmer amaranth, palmer pigweed, Amaranthus palmeri); assay: as above
Outline: as §1

[24] = tested on: soybean (Glycine max); assay: as above
Outline: as §1

[25] = tested on: wheat (Triticum aestivum); assay: Test A preemergence soil spray, visual injury rating 0-100; conditions: 10 days
Outline: as §1

[26] = tested on: oat, wild (wild oat, Avena fatua); assay: as above; conditions: 10 days
Outline: as §1

[27] = tested on: corn (Zea mays); assay: as above; conditions: 10 days
Outline: as §1

[28] = tested on: soybean (Glycine max); assay: as above; conditions: 62 g ai/ha, 10 days, 0 = no effect, 100 = complete control
Outline: as §1

[29] = Postemergence, 1000 g ai/ha, 0 to 100 scale, 10 days
[30] = 1000 g ai/ha, 0 = no effect, 100 = complete control
[31] = 62 g ai/ha, postemergence, 10 days, 0 = no effect, 100 = complete control
[32] = Postemergence, 16 g ai/ha, greenhouse 10 days, 0 no effect, 100 complete control
[33] = 62 g ai/ha, 0 = no effect, 100 = complete control

COC(=O)C1=CCC(NC(=O)C2(C)CN(c3cc(F)cc(F)c3)C(=O)N2)C1 (mixture of isomers) [Compound 181]
80: Kochia plant response rating [5, 29] | Blackgrass plant response rating (0 to 100 scale) [12, 30] | Barnyardgrass plant response rating (0 to 100 scale) [17, 30]
90: Galium plant response rating [1, 29] | Blackgrass plant response rating [2, 29] | Foxtail, Green plant response rating [4, 29] | Barnyardgrass plant response rating [6, 29] | Amaranth, Palmer / Pigweed, Palmer plant response rating (0 to 100 scale) [14] | Foxtail, Green plant response rating (0 to 100 scale) [15, 30] | Kochia plant response rating (0 to 100 scale) [16, 30]
30: Plant response rating, Ducksalad (0 to 100 scale, 0 is no effect and 100 is complete control) [7]
10: Horseweed plant response rating [3, 29] | Plant response rating, Barnyardgrass (0 to 100 scale, 0 is no effect and 100 is complete control) [10]
0: Plant response rating, Sedge, Umbrella (0 to 100 scale, 0 is no effect and 100 is complete control) [9] | Ryegrass, Italian plant response rating (0 to 100 scale) [11, 30] | Ragweed plant response rating (0 to 100 scale) [13, 30]
15: Plant response rating, Rice (0 to 100 scale, 0 is no effect and 100 is complete control) [8]

CC1(C(=O)NC2CC=C(C(=O)OCC(F)(F)F)C2)CN(c2cc(F)cc(Cl)c2)C(=O)O1 (stereo not drawn) [Compound 142]
0: Ryegrass, Italian plant response rating (0-100) [18, 31] | Ryegrass, Italian plant response rating (0 to 100 scale) [18, 32] | Wheat plant response rating (0-100) [19, 31] | Wheat plant response rating (0 to 100 scale) [19, 32] | Galium plant response rating (0-100) [1, 31] | Galium plant response rating (0 to 100 scale) [1, 32] | Oat, Wild plant response rating (0-100) [20, 31] | Oat, Wild plant response rating (0 to 100 scale) [20, 32] | Corn plant response rating (0-100) [21, 31] | Corn plant response rating (0 to 100 scale) [21, 32] | Blackgrass plant response rating (0-100) [2, 31] | Blackgrass plant response rating (0 to 100 scale) [2, 32] | Ragweed plant response rating (0-100) [22, 31] | Ragweed plant response rating (0 to 100 scale) [22, 32] | Horseweed plant response rating (0-100) [3, 31] | Horseweed plant response rating (0 to 100 scale) [3, 32] | Pigweed, Palmer plant response rating (0-100) [23, 31] | Pigweed, Palmer plant response rating (0 to 100 scale) [23, 32] | Foxtail, Green plant response rating (0-100) [4, 31] | Foxtail, Green plant response rating (0 to 100 scale) [4, 32] | Kochia plant response rating (0-100) [5, 31] | Kochia plant response rating (0 to 100 scale) [5, 32] | Soybean plant response rating (0-100) [24, 31] | Soybean plant response rating (0 to 100 scale) [24, 32] | Barnyardgrass plant response rating (0-100) [6, 31] | Barnyardgrass plant response rating (0 to 100 scale) [6, 32] | Plant response rating, Ducksalad (0 to 100 scale, 0 is no effect and 100 is complete control) [7] | Plant response rating, Rice (0 to 100 scale, 0 is no effect and 100 is complete control) [8] | Plant response rating, Sedge, Umbrella (0 to 100 scale, 0 is no effect and 100 is complete control) [9] | Plant response rating, Barnyardgrass (0 to 100 scale, 0 is no effect and 100 is complete control) [10] | Ryegrass, Italian plant response rating ([11]; 16 g ai/ha, 0 to 100 scale) | Ryegrass, Italian plant response rating (0-100) [11, 33] | Wheat plant response rating ([25]; 16 g ai/ha, 0 to 100 scale) | Wheat plant response rating (0-100) [25, 33] | Oat, Wild plant response rating ([26]; 16 g ai/ha, 0 to 100 scale) | Oat, Wild plant response rating (0-100) [26, 33] | Corn plant response rating ([27]; 16 g ai/ha, 0 to 100 scale) | Corn plant response rating (0-100) [27, 33] | Blackgrass plant response rating ([12]; 16 g ai/ha, 0 to 100 scale) | Blackgrass plant response rating (0-100) [12, 33] | Ragweed plant response rating ([13]; 16 g ai/ha, 0 to 100 scale) | Ragweed plant response rating (0-100) [13, 33] | Foxtail, Green plant response rating ([15]; 16 g ai/ha, 0 to 100 scale) | Foxtail, Green plant response rating (0-100) [15, 33] | Kochia plant response rating ([16]; 16 g ai/ha, 0 to 100 scale) | Kochia plant response rating (0-100) [16, 33] | Soybean plant response rating (0-100) [28] | Barnyardgrass plant response rating ([17]; 16 g ai/ha, 0 to 100 scale) | Barnyardgrass plant response rating (0-100) [17, 33]
